Reference: patent publication US12116364B2, “Heteroaryl compounds and uses thereof” (APRINOIA THERAPEUTICS INC., priority 2018, dated 2024)

Assays:
[1] = target: recombinant tau proteins (human Tau, heparin-fiberized) (Homo sapiens, UniProt P10636); assay: Fluorescence quantitative Tau binding assay in vitro; conditions: 0.04 uM fiberized recombinant tau, 30 mM Tris pH 7.5, 1 h, fluorometric saturation curve
Procedure: Expression and Purification of Human Tau Protein
• pET41a-Tau wild type • One Shot® BL21(DE3) Chemically Competent E. coli (Invitrogen, C600003) • Kanamycin sulfate (Sangon Biotech, A506636) • IPTG (Sangon Biotech, A100487) • Pipes buffer (100 mM Pipes, pH6.8, 1 mM EGTA, 1 mM MgSO4) • Hepes buffer (25 mM Hepes, pH7.2, 0.1 mM EDTA, 0.5 mM DTT, 100 mM NaCl) • Q-Sepharose Fast Flow column (GE Healthcare, 17-0510-01) • SP-Sepharose Fast Flow column (GE Healthcare, 17-0729-01) Procedures: Protein Expression: • Step 1: Transform 1 uL expression plasmid pET41a-tau wt into one One Shot® BL21(DE3) Chemically Competent E. coli, on ice 30 min. • Step 2: 42° C. heat shock 90 second and on ice 2 min, 37° C. recovery for 30 min, Plate small amount on LB(Kan+) agar plate incubate overnight at 37° C. • Step 3: Pick and resuspend a single colony in 200 mL liquid culture with 50 ug/mL Kanamycin to produce a starter culture. Inoculate starter culture and shake 200 rpm overnight at 37° C. • Step 4: Add 100× dilution Starter into fresh culture medium (Kan+) shake 200 rpm at 37° C. until OD600=0.8. • Step 5: Add IPTG (final conc. 1 mM) and express protein for 3 hr. • Step 6: Collect cell pellet and store at −80° C. for purification. Protein Purification: • Step 1: Cell pellet was resuspended in Pipes buffer. • Step 2: Sonication and centrifugation (15,000 rpm, 15 min at 4° C. • Step 3: The supernatant was placed in a boiling water bath for 20 min and subsequently centrifuged. The heat-stable proteins in the supernatant were loaded onto a Q-Sepharose Fast Flow column (20 mL) • Step 4: The flow through containing tau was loaded onto SP-Sepharose Fast Flow column (10 mL), eluted with Pipes buffer containing 0.2M NaCl. • Step 6: Fractions containing tau were pooled, concentrated and dialyzed against Hepes buffer, stored at −80° C. • Step 7: Reload SP-Flow through into Q-Sepharose Fast Flow column (20 mL) and SP-Sepharose Fast Flow column (10 mL) again, eluted with Pipes buffer containing 0.2M NaCl. • Step 8: Fractions containing tau were pooled, concentrated and dialyzed against Hepes buffer, stored at −80° C. Repeat step 6-7 twice, Collect all above all elution product and concentrated. Biological Assays Fluorescence Quantitative Tau Binding Assay In Vitro
2 uM of recombinant tau proteins and 15 uM of heparin were fiberized in 30 mM Tris (pH 7.5) buffer by overnight incubation at 37° C. 0.04 uM of recombinant tau proteins which was diluted in 30 mM Tris buffer (pH 7.5) was then reacted with test compounds (containing 1% DMSO) for 1 h. Regarding the fluorometric data, the binding saturation curve was created and the parameter estimation method was conducted using Prism software (GraphPad). Kd values were determined for each of test compounds. Table A lists Kd values of exemplary test compounds.

[2] = tested on: tau aggregates (tangles/threads) in temporal cortex sections of an AD brain; assay: Histological examination by fluorescence staining of AD brain sections; type: binding, human; conditions: 0.001% (W/V) compound in 50% ethanol, 30 min, relative to PBB3; for Fluorescent binding Tangle: score for tangles; for Fluorescent binding Thread: score for threads
Procedure: The fluorescence binding assessment was performed as reported previously^1. For fluorescence labeling with PBB3 and test compounds, deparaffinized temporal cortex sections of an AD brain were incubated in 50% ethanol containing 0.001% (W/V) of PBB3 or test compound at room temperature for 30 min. The samples were rinsed with 50% ethanol for 5 min, dipped into distilled water twice for 3 min, and mounted in non-fluorescent mounting media ([…]; Vector Laboratories). Fluorescence images were captured using a DM4000 microscope (Leica) equipped with a custom filter cube for PBB3 (excitation band-pass at 391-437 nm and suppression low-pass with 458 nm cutoff).

[3] = target: [11C]PBB3 binding sites (tau aggregates) in temporal cortex homogenates of an Alzheimer's disease patient (Homo sapiens, UniProt P10636); assay: Fluorescence competitive binding assay in vitro ([11C]PBB3 displacement in Alzheimer's disease temporal cortex homogenates); conditions: 5 nM [11C]PBB3, AD temporal cortex homogenate (100 μg tissue), 30 min, room temperature
Procedure: Fluorescence competitive binding assay in vitro was performed as reported previously1. Frozen tissues derived from the temporal cortex of an Alzheimer's disease patient was homogenized in 50 mM Tris-HCl buffer, pH 7.4, containing protease inhibitor cocktail (cOmplete™, EDTA-free; Roche), and stored at −80° C. pending analyses. To assay radioligand binding with homologous or heterologous blockade, these homogenates (100 μg tissue) were incubated with 5 nM [11C]PBB3 (molar radioactivity: 100-150 GBq/μmol) in the absence or presence of unlabeled PBB3 at varying concentrations ranging from 10-11-106 M in Tris-HCl buffer containing 10% ethanol, pH 7.4, for 30 min at room temperature. Non-specific binding of [11C]PBB3 was determined in the presence of 5×10^−7 M PBB3. Samples were run once only and specific radioligand binding was determined as pmol/g tissue. Inhibition constant (Ki) and percentage of displacement were determined by using non-linear regression to fit a concentration-binding plot to one-site and two-site binding models derived from the Cheng-Prusoff equation with GraphPad Prism version 6.0 (GraphPad Software), followed by F-test for model selection. In a one-site homologous blockade model, dissociation constant (Kd) was calculated from homologous competitive binding using this function: Kd=Ki=IC50−Radioligand
where IC50 and [Radioligand] stand for the concentration of the competitor inducing 50% inhibition and radioligand concentration, respectively. Experiments with [^11C]PBB3 and unlabeled PBB3 were performed in a dimly lit condition to avoid photoconversion of the compounds. Table B lists Ki values of exemplary test compounds.

recombinant tau proteins (human Tau, heparin-fiberized), sequence (P10636 whole entry): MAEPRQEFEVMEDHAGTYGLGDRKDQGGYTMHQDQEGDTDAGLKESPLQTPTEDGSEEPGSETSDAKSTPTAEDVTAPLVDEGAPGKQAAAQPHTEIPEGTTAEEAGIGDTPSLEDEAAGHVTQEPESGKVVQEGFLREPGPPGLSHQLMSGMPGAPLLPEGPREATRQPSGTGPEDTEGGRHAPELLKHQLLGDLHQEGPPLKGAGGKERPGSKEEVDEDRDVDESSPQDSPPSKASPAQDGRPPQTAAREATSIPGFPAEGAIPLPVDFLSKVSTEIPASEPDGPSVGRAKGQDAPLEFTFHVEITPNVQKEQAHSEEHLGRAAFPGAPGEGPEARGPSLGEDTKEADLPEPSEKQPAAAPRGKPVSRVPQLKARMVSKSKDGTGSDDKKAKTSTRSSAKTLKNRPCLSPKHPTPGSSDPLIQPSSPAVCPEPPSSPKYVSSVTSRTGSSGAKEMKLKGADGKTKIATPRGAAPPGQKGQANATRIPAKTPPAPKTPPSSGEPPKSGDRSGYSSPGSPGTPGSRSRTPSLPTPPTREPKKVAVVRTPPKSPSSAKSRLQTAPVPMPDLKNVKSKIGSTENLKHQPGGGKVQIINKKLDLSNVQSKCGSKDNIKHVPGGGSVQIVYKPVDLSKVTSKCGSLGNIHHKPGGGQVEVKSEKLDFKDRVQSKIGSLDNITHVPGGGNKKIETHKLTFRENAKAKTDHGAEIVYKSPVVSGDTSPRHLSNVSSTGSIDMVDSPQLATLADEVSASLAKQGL
[11C]PBB3 binding sites (tau aggregates) in temporal cortex homogenates of an Alzheimer's disease patient, sequence (P10636 623-695 limits assumed): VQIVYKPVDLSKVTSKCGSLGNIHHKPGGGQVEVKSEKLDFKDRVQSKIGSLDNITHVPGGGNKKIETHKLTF

Structure (SMILES)	Kd [1] [nM]	Fluorescent binding Tangle [2]	Fluorescent binding Thread [2]	Ki [3] [nM]
CNc1ccc(-c2ccc(-c3cn4cc(OCC(O)CF)ccc4n3)cc2)cn1 (centres unmarked) [Compound N, 1-Fluoro-3-(2-(4-(6-(methylamino)pyridin-3-yl)phenyl)imidazo[1,2-a]pyridin-6-yloxy)propan-2-ol]	260	0.5	0	20
CNc1ccc(-c2ccc(-c3cc4ccncc4[nH]3)nc2F)cn1 [Compound S, 5-[2-Fluoranyl-6-(1H-pyrrolo[2,3-c]pyridin-2-yl)pyridin-3-yl]-N-methyl-pyridin-2-amine]	940	3/3	3/3	15
CNc1ccc(-c2ccc(-c3cc4cc(F)ncc4[nH]3)cc2)cn1 [Compound B, 5-(4-(5-Fluoro-1H-pyrrolo[2,3-c]pyridin-2-yl)phenyl)-N-methylpyridin-2-amine]	990	3/3	3/3	2
CNc1ccc(-c2cc(F)c(-c3cc4ccncc4[nH]3)cn2)cn1 [Compound R, 4-Fluoro-N-methyl-5-(1H-pyrrolo[2,3-c]pyridin-2-yl)-2,3′-bipyridin-6′-amine]	1820	3/3	3/3	15
CNc1ccc(-c2ccc(-c3nc4ccc(NCC(O)CF)cc4s3)cc2)cn1 (centres unmarked) [Compound J, 1-Fluoranyl-3-[[2-[4-[6-(methylamino)pyridin-3-yl]phenyl]-1,3-benzothiazol-6-yl]amino]propan-2-ol]	890	3/3	3/3	5
